Source: PubChem BioAssay (NCI)
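Values below derive from 48-hour exposures of cells grown in 96-well plates, with endpoints linearly interpolated between the two concentrations bracketing the appropriate inhibition level. GI50: concentration for 50% inhibition of growth. At the TGI there is no net growth.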

Legend:
Experiment in all cases: inhibition of tumour cell growth, NCI panel, 48 h; in the data active = GI50 below about 0.43 µM; inactive = the rest
HT29 colon = system: HT29 colon
786-0 renal = system: 786-0 renal
U251 CNS = system: U251 CNS
MOLT-4 leukemia = system: MOLT-4 leukemia
OVCAR-3 ovarian = system: OVCAR-3 ovarian
SN12C renal = system: SN12C renal
TK-10 renal = system: TK-10 renal
PC-3 prostate = system: PC-3 prostate
DU-145 prostate = system: DU-145 prostate
IGROV1 ovarian = system: IGROV1 ovarian
UACC-257 melanoma = system: UACC-257 melanoma
K-562 leukemia = system: K-562 leukemia
HCT-116 colon = system: HCT-116 colon
RXF 393 renal = system: RXF 393 renal
SF-539 CNS = system: SF-539 CNS
RPMI-8226 leukemia = system: RPMI-8226 leukemia
SNB-19 CNS = system: SNB-19 CNS
NCI-H522 lung = system: NCI-H522 lung
SF-268 CNS = system: SF-268 CNS
HOP-62 NSCLC = system: HOP-62 NSCLC
KM12 colon = system: KM12 colon
MDA-MB-435 = system: MDA-MB-435
CAKI-1 renal = system: CAKI-1 renal
HCT-15 colon = system: HCT-15 colon
NCI-H226 lung = system: NCI-H226 lung
SK-MEL-2 melanoma = system: SK-MEL-2 melanoma
NCI-H23 lung = system: NCI-H23 lung
MDA-MB-231 breast = system: MDA-MB-231 breast
SK-MEL-5 melanoma = system: SK-MEL-5 melanoma
HCC-2998 colon = system: HCC-2998 colon
HOP-92 NSCLC = system: HOP-92 NSCLC
CCRF-CEM leukemia = system: CCRF-CEM leukemia
MCF7 breast = system: MCF7 breast
T-47D breast = system: T-47D breast
MDA-N = system: MDA-N
HS 578T breast = system: HS 578T breast
UO-31 renal = system: UO-31 renal
SNB-75 CNS = system: SNB-75 CNS
SK-OV-3 ovarian = system: SK-OV-3 ovarian
LOX IMVI melanoma = system: LOX IMVI melanoma
OVCAR-4 ovarian = system: OVCAR-4 ovarian
A549 NSCLC = system: A549 NSCLC
SW-620 colon = system: SW-620 colon
NCI/ADR-RES ovarian = system: NCI/ADR-RES ovarian
SR leukemia = system: SR leukemia
SF-295 CNS = system: SF-295 CNS
UACC-62 melanoma = system: UACC-62 melanoma
NCI-H460 lung = system: NCI-H460 lung
SK-MEL-28 melanoma = system: SK-MEL-28 melanoma
ACHN renal = system: ACHN renal
OVCAR-8 ovarian = system: OVCAR-8 ovarian
EKVX NSCLC = system: EKVX NSCLC
COLO 205 colon = system: COLO 205 colon
OVCAR-5 ovarian = system: OVCAR-5 ovarian
HL-60(TB) leukemia = system: HL-60(TB) leukemia
M14 melanoma = system: M14 melanoma
MALME-3M melanoma = system: MALME-3M melanoma
A498 renal = system: A498 renal
BT-549 breast = system: BT-549 breast

CCOC(=O)/C=C(/C(=O)OCC)n1cc(C)c(=O)n(Cc2cn(CCCCOC(C)=O)nn2)c1=O
34.1 µM: TGI (NCI-H460 lung)
31.9 µM: TGI (NCI-H23 lung)
2.31 µM: TGI (CCRF-CEM leukemia)
32.6 µM: TGI (SNB-75 CNS)
4.53 µM: TGI (NCI-H522 lung)
16.7 µM: TGI (TK-10 renal) | TGI (ACHN renal)
36.8 µM: TGI (UACC-257 melanoma)
40.3 µM: TGI (PC-3 prostate)
37.1 µM: TGI (NCI-H226 lung)
41 µM: TGI (OVCAR-5 ovarian)
62.4 µM: TGI (SR leukemia)
65 µM: TGI (HCT-116 colon)
38.7 µM: TGI (SF-268 CNS)
25.8 µM: TGI (OVCAR-8 ovarian)
20.5 µM: TGI (HT29 colon)
29.6 µM: TGI (IGROV1 ovarian)
33.4 µM: TGI (OVCAR-3 ovarian)
25.6 µM: TGI (RPMI-8226 leukemia)
36.6 µM: TGI (HCC-2998 colon)
28.4 µM: TGI (MDA-MB-435)
19.1 µM: TGI (SF-539 CNS)
30.5 µM: TGI (UACC-62 melanoma)
39.5 µM: TGI (OVCAR-4 ovarian)
56.1 µM: TGI (A549 NSCLC)
65.6 µM: TGI (NCI/ADR-RES ovarian)
29.5 µM: TGI (KM12 colon)
65.4 µM: TGI (MDA-MB-231 breast)
41.9 µM: TGI (SNB-19 CNS)
35.2 µM: TGI (SK-MEL-28 melanoma)
> 100 µM: TGI (786-0 renal) | TGI (DU-145 prostate) | TGI (K-562 leukemia) | TGI (RXF 393 renal) | TGI (HOP-62 NSCLC) | TGI (HCT-15 colon) | TGI (SK-MEL-5 melanoma) | TGI (T-47D breast) | TGI (MDA-N) | TGI (SK-OV-3 ovarian) | TGI (SW-620 colon) | TGI (SF-295 CNS) | TGI (COLO 205 colon)
45.1 µM: TGI (SK-MEL-2 melanoma)
42.2 µM: TGI (MCF7 breast)
49.5 µM: TGI (LOX IMVI melanoma)
24.9 µM: TGI (MOLT-4 leukemia)
91.7 µM: TGI (SN12C renal)
28.3 µM: TGI (UO-31 renal)
59 µM: TGI (HS 578T breast)
6.46 µM: TGI (CAKI-1 renal)
3.11 µM: TGI (HOP-92 NSCLC)
22.7 µM: TGI (EKVX NSCLC)
45.3 µM: TGI (U251 CNS)

O=Cc1c2c(cc3c1CC1(C3)Cc3cc4c(c(C=O)c3C1)CCC4)CCC2
73 µM: TGI (SR leukemia)
84.7 µM: TGI (A498 renal)
98.8 µM: TGI (TK-10 renal)
43.6 µM: TGI (ACHN renal)
70.1 µM: TGI (MDA-MB-231 breast)
89.3 µM: TGI (MALME-3M melanoma)
63.7 µM: TGI (K-562 leukemia)
56.5 µM: TGI (HOP-92 NSCLC)
80.5 µM: TGI (HS 578T breast)
50.8 µM: TGI (SK-MEL-2 melanoma)
51.4 µM: TGI (HOP-62 NSCLC)
48.7 µM: TGI (MOLT-4 leukemia)
87.5 µM: TGI (A549 NSCLC)
33.7 µM: TGI (HCT-116 colon)
51.1 µM: TGI (LOX IMVI melanoma)
55.7 µM: TGI (HL-60(TB) leukemia)
6.38 µM: TGI (UO-31 renal)
62.3 µM: TGI (UACC-62 melanoma)
57.4 µM: TGI (COLO 205 colon)
58.4 µM: TGI (CCRF-CEM leukemia)
38.4 µM: TGI (U251 CNS)
> 100 µM: TGI (HT29 colon) | TGI (786-0 renal) | TGI (OVCAR-3 ovarian) | TGI (SN12C renal) | TGI (PC-3 prostate) | TGI (IGROV1 ovarian) | TGI (UACC-257 melanoma) | TGI (RXF 393 renal) | TGI (SF-539 CNS) | TGI (RPMI-8226 leukemia) | TGI (NCI-H522 lung) | TGI (M14 melanoma) | TGI (MDA-MB-435) | TGI (HCT-15 colon) | TGI (NCI-H226 lung) | TGI (NCI-H23 lung) | TGI (SK-MEL-5 melanoma) | TGI (HCC-2998 colon) | TGI (MCF7 breast) | TGI (T-47D breast) | TGI (MDA-N) | TGI (SK-OV-3 ovarian) | TGI (NCI/ADR-RES ovarian) | TGI (SF-295 CNS) | TGI (OVCAR-8 ovarian) | TGI (EKVX NSCLC) | TGI (OVCAR-5 ovarian)
72.1 µM: TGI (OVCAR-4 ovarian)

CN(Cc1cnc2nc(N)nc(N)c2n1)c1c(Cl)cc(C(=O)NC(CCC(=O)O)C(=O)O)cc1Cl (stereo not drawn)
> 100 µM: TGI (HT29 colon) | TGI (HL-60(TB) leukemia) | TGI (786-0 renal) | TGI (U251 CNS) | TGI (MOLT-4 leukemia) | TGI (OVCAR-3 ovarian) | TGI (SN12C renal) | TGI (BT-549 breast) | TGI (TK-10 renal) | TGI (PC-3 prostate) | TGI (DU-145 prostate) | TGI (IGROV1 ovarian) | TGI (UACC-257 melanoma) | TGI (K-562 leukemia) | TGI (HCT-116 colon) | TGI (RXF 393 renal) | TGI (SF-539 CNS) | TGI (RPMI-8226 leukemia) | TGI (SNB-19 CNS) | TGI (NCI-H522 lung) | TGI (M14 melanoma) | TGI (SF-268 CNS) | TGI (HOP-62 NSCLC) | TGI (KM12 colon) | TGI (MDA-MB-435) | TGI (HCT-15 colon) | TGI (NCI-H226 lung) | TGI (MALME-3M melanoma) | TGI (SK-MEL-2 melanoma) | TGI (NCI-H23 lung) | TGI (MDA-MB-231 breast) | TGI (SK-MEL-5 melanoma) | TGI (HCC-2998 colon) | TGI (HOP-92 NSCLC) | TGI (CCRF-CEM leukemia) | TGI (MCF7 breast) | TGI (T-47D breast) | TGI (HS 578T breast) | TGI (UO-31 renal) | TGI (SNB-75 CNS) | TGI (SK-OV-3 ovarian) | TGI (LOX IMVI melanoma) | TGI (OVCAR-4 ovarian) | TGI (A549 NSCLC) | TGI (SW-620 colon) | TGI (A498 renal) | TGI (NCI/ADR-RES ovarian) | TGI (SR leukemia) | TGI (UACC-62 melanoma) | TGI (NCI-H460 lung) | TGI (SK-MEL-28 melanoma) | TGI (ACHN renal) | TGI (OVCAR-8 ovarian) | TGI (EKVX NSCLC) | TGI (COLO 205 colon) | TGI (OVCAR-5 ovarian)
active: GI50 (HT29 colon) < 0.01 µM | GI50 (HL-60(TB) leukemia) < 0.01 µM | GI50 (786-0 renal) < 0.01 µM | GI50 (U251 CNS) 0.0423 µM | GI50 (MOLT-4 leukemia) < 0.0201 µM | GI50 (OVCAR-3 ovarian) 0.0685 µM | GI50 (SN12C renal) < 0.01 µM | GI50 (PC-3 prostate) < 0.01 µM | GI50 (DU-145 prostate) < 0.01 µM | GI50 (IGROV1 ovarian) < 0.01 µM | GI50 (K-562 leukemia) < 0.01 µM | GI50 (HCT-116 colon) < 0.01 µM | GI50 (SF-539 CNS) < 0.01 µM | GI50 (RPMI-8226 leukemia) < 0.01 µM | GI50 (SNB-19 CNS) 0.0395 µM | GI50 (NCI-H522 lung) 0.0457 µM | GI50 (M14 melanoma) < 0.01 µM | GI50 (SF-268 CNS) < 0.0169 µM | GI50 (HOP-62 NSCLC) 0.0287 µM | GI50 (KM12 colon) < 0.0137 µM | GI50 (MDA-MB-435) < 0.01 µM | GI50 (CAKI-1 renal) < 0.01 µM | GI50 (HCT-15 colon) < 0.01 µM | GI50 (NCI-H226 lung) 0.0745 µM | GI50 (NCI-H23 lung) 0.0277 µM | GI50 (SK-MEL-5 melanoma) 0.0483 µM | GI50 (HCC-2998 colon) < 0.0148 µM | GI50 (CCRF-CEM leukemia) < 0.01 µM | GI50 (MCF7 breast) < 0.01 µM | GI50 (UO-31 renal) < 0.01 µM | GI50 (SNB-75 CNS) 0.173 µM | GI50 (LOX IMVI melanoma) < 0.01 µM | GI50 (A549 NSCLC) < 0.0116 µM | GI50 (SW-620 colon) < 0.01 µM | GI50 (A498 renal) 0.0994 µM | GI50 (NCI/ADR-RES ovarian) < 0.01 µM | GI50 (SR leukemia) < 0.01 µM | GI50 (SF-295 CNS) 0.0156 µM | GI50 (UACC-62 melanoma) < 0.0106 µM | GI50 (NCI-H460 lung) < 0.01 µM | GI50 (SK-MEL-28 melanoma) 0.313 µM | GI50 (ACHN renal) < 0.01 µM | GI50 (OVCAR-8 ovarian) < 0.01 µM | GI50 (COLO 205 colon) 0.08 µM
inactive: GI50 (BT-549 breast) 1.4 µM | GI50 (TK-10 renal) 1.88 µM | GI50 (RXF 393 renal) 0.731 µM | GI50 (MALME-3M melanoma) 81.4 µM | GI50 (SK-MEL-2 melanoma) > 100 µM | GI50 (HOP-92 NSCLC) 1.49 µM | GI50 (HS 578T breast) 8.12 µM | GI50 (SK-OV-3 ovarian) 0.807 µM | GI50 (OVCAR-5 ovarian) 1.76 µM
0.0242 µM: TGI (CAKI-1 renal)
